In patent publication US20090247520A1, “INHIBITORS OF ANTIGEN RECEPTOR-INDUCED NF-kappa B ACTIVATION” (The Burnham Institute for Medical Research, priority 2008, published 2009):
“Also recorded” adds a separate entry of the source.

Legend:
[1] = test system: PMA/Ionomycin-stimulated IL-8 production; experiment: PMA/Ionomycin-stimulated IL-8 production by HEK293 reporter cells (ELISA); format: cell-based, human
Procedure: (A) Structures of two hit compounds, CID-2858522 (left) and CID-2998237 (right) are shown; (B, C) 293-NF-κB-luc cells were pretreated for 2 hrs with various concentration of either CID-2858522 (B) or CID-29982387 (C) and then stimulated with TNF (10 ng/mL) or PMA/lonomycin (10 ng/mL; 5 ng/mL) for 16 h. Luciferase activity was measured and data were expressed as a percentage relative to control treatment with DMSO only (mean±SD; n=3). (D) 293-NF-κB-luc cells were pretreated for 2 h with various concentrations of CID-2858522 or CID-2998237, then stimulated with PMA/lonomycin for 16 h. IL-8 release into the medium was measured, expressing data as a percentage relative to control cultures treated with DMSO (mean±SD; n=3). (E) 293-NF-κB-luc cells were pretreated with CID-2858522 and then stimulated with PDBu for 16 h, IL-8 production and NF-κB luciferase activity were measured as above. (F) 293-NF-κB-luc cells were pretreated for 2 h with various concentrations of CID-2858522 or a PKC inhibitor (Bisindolylmaleimide I) at 1 μM followed by PMA/Ionomycin (10 ng/mL) stimulation for 2 h, then p65-DNA-binding activity was measured in nuclear extracts (10 μg protein), expressing data as fold-increase relative to unstimulated cells (mean±SD; n=3).
Lymphokine measurements. Human IL-2 or IL-8 levels in culture medium were measured by Enzyme-Linked Immunosorbent Assays (ELISAs), using BD OptEIA ELISAs (BD Biosciences, San Diego, Calif.), according to the manufacturer's protocol, using 96-well ELISA plates (BD Biosciences) and measuring absorbance within 30 minutes of initiating reactions using a SpectraMax 190 spectrophotometer (Molecular Devices).

[2] = test system: Anti-Lymphotoxin-β induced NF-κB luciferase activity; experiment: NF-κB luciferase in HeLa cells induced by anti-Lymphotoxin-β receptor; format: cell-based; settings: listed as CID-2858522
Text: FIG. 1 is a flow chart of screening and counter-screenings for selective inhibitors of antigen-receptor induced NF-κB pathway. A total of 114,889 compounds were screened. From a screen of 53,280 commercially available compounds (left column), 519 hits were obtained, of which 248 reconfirmed using the same primary screening assay. […] From these 11 active compounds, one hit, CID-2858522, inhibited PMA/Ionomycin-induced production of cytokine IL-8 by the HEK293 cell line. CID-2858522 was then characterized (right column). PDB was substituted for PMA to confirm suppression of an alternative PKC activator. Pathway selectivity was assessed using panels of cell lines, starting with HEK293 cells in which each of the remaining NF-κB activation pathways was stimulated, showing inhibition only of PMA/Ionomycin-induced NF-κB reporter gene activity (panel 1). […]

IKK-β phosphorylation = experiment: PMA/Ionomycin-induced IKK-β phosphorylation in HEK293 cells; format: cell-based; settings: 4 μM
Procedure: FIG. 7. CID-285852 inhibits IKKβ phosphorylation induced by PKC activators. (A) HEK293 cells were cultured in 0.5% FBS medium for 24 h and then treated with CID-2858522 (4 μM) or PKC inhibitor, Bisindolylmaleimide I (1 μM) for 2 hrs followed by PMA/Ionomycin (10 ng/mL; 5 ng/mL) for 2 h. Cell lysates were subjected to immunoprecipitation using anti-CARMA1 antibody and analyzed by immunoblotting with anti-phospho-CARMA1 antibody or anti-CARMA1 antibody. (B-E) HEK293 cells were transfected with plasmids encoding myc-CARMA1 in combination with plasmids encoding various other proteins including Caspase-8 (cys287ala) (B), HA-IKK-γ (C), HA-TAK1 (D), and TRAF6 (E). After 36 h. cells were cultured in 0.5% FBS medium for 12 h and then treated with CID-2858522 (4 μM) or Bisindolylmaleimide I (1 μM) for 2 hrs, followed by PMA/Ionomycin treatment (10 ng/mL; 5 ng/mL) for 2 hrs. Cell lysates were immunoprecipated using anti-myc antibody and analyzed by immunoblotting using anti-Caspase8 (B), anti-HA (C,D), or anti-TRAF6 (E) antibodies. […] Cell lysates were normalized for protein content and analyzed by immunoblotting using anti-FLIP and anti-alpha-tubulin antibodies. […] Cell lysates were immunoprecipitated using anti-IKK-β and analyzed by immunoblotting using anti-phospho-IKK-β antibody or anti-IKK-β antibody (as loading control). […]

## Cc1cc2nc(NCCCO)n(CC(=O)c3cc(C(C)(C)C)c(O)c(C(C)(C)C)c3)c2cc1C [Compound 1, 2-(2-(3-Hydroxypropylamino)-5,6-dimethyl-1H-benzo[d]imidazol-1-yl)-1-(3,5-di-tert-butyl-4-hydroxyphenyl)ethanone]
[1]; Homo sapiens
  IC50: < 0.1 µM
[1]; PMA/Ionomycin
  concentration at which maximum suppression of IL-8 production is achieved: 1 µM
[2]
  suppression of NF-κB luciferase, anti-Lymphotoxin-β in HeLa: failed to inhibit; also recorded: did not suppress
IKK-β phosphorylation
  inhibition of PMA/Ionomycin-induced IKK-β phosphorylation: significantly inhibited
